From publication PMC6628159 (Marine Drugs, 2019)
Where “and” joins values, the source holds several entries; their conditions need not be identical. Equal values may be shown once. Read-outs that look alike come from different tables or passages of the source.

Assays:
[1] = test system: MDA-MB-231 tumor cells; test: MTT assay, growth inhibition of MDA-MB-231 cells; assay type: cell-based; details: Homo sapiens, read-out: IC50 ± SD MDA-MB-231 growth inhibition
Method: (§1) Cells (600,000 cells/well) were seeded in 96-well plates and incubated for 24 h before being treated with various concentrations of compounds or solvent control. Cells were further incubated for 72 h and then treated with MTT and incubated for another 3 h. The media were then removed and 100 µL DMSO was added to each well. The absorbance at 550 nm was measured by a SpectraMAX340 microplate reader (Molecular Devices, Sunnyvale, CA, USA) with a reference wavelength at 690 nm.

[2] = test system: SK-OV-3 tumor cells; test: MTT assay, growth inhibition of SK-OV-3 cells; assay type: cell-based; details: seven-dose IC50 mode in duplicate, four-fold serial dilution
Method: as §1

[3] = target: T1, recombinant human HDAC2 (Homo sapiens, UniProt Q92769); test: Recombinant human HDAC2 enzymatic assay (Ac-peptide-AMC, fluorescence); assay type: biochemical
T1 construct: purchased BPS Biosciences
T1 sequence (Q92769 whole entry): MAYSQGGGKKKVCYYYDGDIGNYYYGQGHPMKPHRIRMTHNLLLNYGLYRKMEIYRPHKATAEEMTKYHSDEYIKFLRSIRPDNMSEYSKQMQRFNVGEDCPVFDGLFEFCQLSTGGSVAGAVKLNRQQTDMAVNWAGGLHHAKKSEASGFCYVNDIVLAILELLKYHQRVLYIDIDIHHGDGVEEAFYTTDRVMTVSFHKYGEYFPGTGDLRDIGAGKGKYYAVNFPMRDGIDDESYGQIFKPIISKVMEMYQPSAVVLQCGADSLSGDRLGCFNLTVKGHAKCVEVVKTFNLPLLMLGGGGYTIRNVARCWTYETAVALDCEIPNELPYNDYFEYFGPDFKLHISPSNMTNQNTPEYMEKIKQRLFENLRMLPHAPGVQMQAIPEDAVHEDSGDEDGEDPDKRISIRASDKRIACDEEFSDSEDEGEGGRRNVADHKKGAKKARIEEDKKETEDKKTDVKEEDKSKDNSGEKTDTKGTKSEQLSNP
Method: (§2) The assays were carried out by Shanghai ChemPartner Co., Ltd. (Shanghai, China). Briefly, different concentrations of compounds were incubated with recombinant human HDAC1, HDAC2, HDAC3, HDAC6, and HDAC8 (BPS Biosciences, San Diego, CA, USA) at room temperature for 15 min, which was followed by adding Ac-peptide-AMC substrates to initiate the reaction in Tris-based assay buffer. Reaction mixtures were incubated at room temperature for 60 min in the HDAC1, HDAC2, HDAC3, and HDAC6 assays, and were incubated for 240 min in the HDAC8 assay. Then a stop solution containing trypsin was added. The coupled reaction was incubated for another 90 min at 37 °C. […] IC50 values were calculated by GraphPad Prism version 4.00 Windows (GraphPad Software, San Diego, CA, USA).

[4] = target: T2, recombinant human HDAC8 (Homo sapiens, UniProt Q9BY41); test: Recombinant human HDAC8 enzymatic assay (Ac-peptide-AMC, fluorescence); assay type: biochemical
T2 construct: purchased BPS Biosciences
T2 sequence (Q9BY41 1-377): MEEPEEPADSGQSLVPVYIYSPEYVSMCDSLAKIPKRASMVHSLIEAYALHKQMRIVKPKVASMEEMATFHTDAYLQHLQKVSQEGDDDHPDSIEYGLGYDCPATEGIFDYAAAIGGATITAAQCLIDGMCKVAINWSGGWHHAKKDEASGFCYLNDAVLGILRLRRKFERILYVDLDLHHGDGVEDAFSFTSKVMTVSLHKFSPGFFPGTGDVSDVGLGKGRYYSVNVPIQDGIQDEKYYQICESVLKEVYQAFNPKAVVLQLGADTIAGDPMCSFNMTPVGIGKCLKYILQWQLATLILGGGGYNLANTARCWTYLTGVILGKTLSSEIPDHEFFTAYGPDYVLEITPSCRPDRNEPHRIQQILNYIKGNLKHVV
Method: as §2

[5] = test system: HCT116 tumor cells; details: reported by Leusch; read-out: IC50 HCT116 growth inhibition (data in parentheses) (converted); cited from earlier work
[6] = target: T3, recombinant human HDAC1 (Homo sapiens, UniProt Q13547); test: Recombinant human HDAC1 enzymatic assay (Ac-peptide-AMC, fluorescence); assay type: biochemical
T3 construct: purchased BPS Biosciences
T3 sequence (Q13547 whole entry): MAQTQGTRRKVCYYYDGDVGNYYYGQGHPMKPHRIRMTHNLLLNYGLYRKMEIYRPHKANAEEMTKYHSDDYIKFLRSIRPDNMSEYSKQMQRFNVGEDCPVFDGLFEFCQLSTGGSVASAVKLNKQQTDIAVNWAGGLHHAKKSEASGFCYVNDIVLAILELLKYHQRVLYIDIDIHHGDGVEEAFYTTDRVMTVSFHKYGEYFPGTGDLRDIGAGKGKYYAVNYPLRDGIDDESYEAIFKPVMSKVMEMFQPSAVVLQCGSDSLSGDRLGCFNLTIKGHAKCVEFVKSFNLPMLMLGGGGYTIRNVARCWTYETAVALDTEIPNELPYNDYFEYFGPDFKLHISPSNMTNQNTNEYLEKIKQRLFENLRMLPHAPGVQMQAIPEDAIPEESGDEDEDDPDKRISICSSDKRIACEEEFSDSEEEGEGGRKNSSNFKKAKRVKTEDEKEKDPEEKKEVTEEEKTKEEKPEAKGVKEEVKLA
Method: as §2

[7] = test system: HCT116 tumor cells; test: MTT assay, growth inhibition of HCT116 cells; assay type: cell-based; details: seven-dose IC50 mode in duplicate, four-fold serial dilution
Method: as §1

[8] = test system: A549 tumor cells; test: MTT assay, growth inhibition of A549 cells; assay type: cell-based; details: Homo sapiens, read-out: IC50 ± SD A549 growth inhibition
Method: as §1

[9] = target: T4, recombinant human HDAC3 (Homo sapiens, UniProt O15379); test: Recombinant human HDAC3 enzymatic assay (Ac-peptide-AMC, fluorescence); assay type: biochemical; details: 10-dose IC50 mode in duplicate, threefold serial dilution; 60 min reaction; read-out: IC50 ± SD HDAC3
T4 construct: purchased BPS Biosciences
T4 sequence (O15379 whole entry): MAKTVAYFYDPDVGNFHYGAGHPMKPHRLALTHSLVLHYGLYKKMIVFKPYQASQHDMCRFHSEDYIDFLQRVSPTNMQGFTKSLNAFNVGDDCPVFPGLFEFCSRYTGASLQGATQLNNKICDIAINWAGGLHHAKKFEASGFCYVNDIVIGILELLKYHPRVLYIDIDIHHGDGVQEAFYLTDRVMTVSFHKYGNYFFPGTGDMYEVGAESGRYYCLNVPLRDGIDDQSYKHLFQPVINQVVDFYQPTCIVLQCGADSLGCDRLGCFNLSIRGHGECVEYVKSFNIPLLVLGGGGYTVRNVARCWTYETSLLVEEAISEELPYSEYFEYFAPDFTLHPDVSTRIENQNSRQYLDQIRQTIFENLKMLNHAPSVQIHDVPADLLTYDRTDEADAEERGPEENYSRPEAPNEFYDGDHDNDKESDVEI
T4 sequence (Q9Y618 395-489 partner limits assumed): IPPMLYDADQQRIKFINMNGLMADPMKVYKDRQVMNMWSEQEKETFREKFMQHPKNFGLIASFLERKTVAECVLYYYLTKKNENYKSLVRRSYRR
Method: as §2

[10] = target: T5, recombinant human HDAC6 (Homo sapiens, UniProt Q9UBN7); test: Recombinant human HDAC6 enzymatic assay (Ac-peptide-AMC, fluorescence); assay type: biochemical; details: read-out: IC50 ± SD HDAC6
T5 construct: purchased BPS Biosciences
T5 sequence (Q9UBN7 1-1215): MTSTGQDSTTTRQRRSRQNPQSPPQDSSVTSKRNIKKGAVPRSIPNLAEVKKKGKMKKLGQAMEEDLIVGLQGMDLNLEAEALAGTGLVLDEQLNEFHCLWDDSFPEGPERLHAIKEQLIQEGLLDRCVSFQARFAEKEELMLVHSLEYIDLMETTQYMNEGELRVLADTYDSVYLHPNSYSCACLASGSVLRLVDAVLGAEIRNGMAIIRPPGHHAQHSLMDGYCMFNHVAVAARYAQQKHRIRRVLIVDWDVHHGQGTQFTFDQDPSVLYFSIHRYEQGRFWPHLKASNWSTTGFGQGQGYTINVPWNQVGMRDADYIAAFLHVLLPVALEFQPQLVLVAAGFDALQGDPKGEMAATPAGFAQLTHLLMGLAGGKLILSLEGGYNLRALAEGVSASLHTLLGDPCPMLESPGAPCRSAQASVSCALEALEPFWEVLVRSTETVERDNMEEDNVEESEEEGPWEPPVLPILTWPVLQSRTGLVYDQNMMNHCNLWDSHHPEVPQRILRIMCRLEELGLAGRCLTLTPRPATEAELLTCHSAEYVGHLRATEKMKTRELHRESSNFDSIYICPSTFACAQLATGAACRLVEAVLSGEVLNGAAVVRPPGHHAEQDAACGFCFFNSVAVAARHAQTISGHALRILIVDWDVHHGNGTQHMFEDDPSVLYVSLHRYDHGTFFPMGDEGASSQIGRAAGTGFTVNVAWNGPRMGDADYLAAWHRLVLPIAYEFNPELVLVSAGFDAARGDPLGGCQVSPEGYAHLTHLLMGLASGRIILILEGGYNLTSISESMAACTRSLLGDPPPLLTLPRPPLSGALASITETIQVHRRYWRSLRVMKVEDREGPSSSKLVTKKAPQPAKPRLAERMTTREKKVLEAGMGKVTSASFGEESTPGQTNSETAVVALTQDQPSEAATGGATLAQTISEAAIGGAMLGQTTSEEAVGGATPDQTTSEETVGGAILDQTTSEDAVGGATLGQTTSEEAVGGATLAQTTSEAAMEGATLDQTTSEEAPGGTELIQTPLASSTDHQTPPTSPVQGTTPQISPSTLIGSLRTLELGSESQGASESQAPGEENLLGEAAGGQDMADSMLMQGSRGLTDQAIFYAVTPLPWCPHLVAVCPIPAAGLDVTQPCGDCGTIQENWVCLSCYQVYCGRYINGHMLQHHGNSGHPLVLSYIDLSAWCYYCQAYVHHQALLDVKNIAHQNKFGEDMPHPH
Method: as §2

[11] = 10-dose IC50 mode in duplicate, threefold serial dilution, 240 min reaction, read-out: IC50 ± SD HDAC8
[12] = IC50 value ratio of HDAC 1 versus HDAC 6

| SMILES | IC50 [4] [nM] | IC50 [9] | IC50 ([3]; read-out: IC50 ± SD HDAC2) [nM] | IC50 [4, 11] [nM] | IC50 [10] [nM] | Selectivity (HDAC1/6) [6, 12] | IC50 ([6]; read-out: IC50 ± SD HDAC1) [nM] | also measured |
| --- | --- | --- | --- | --- | --- | --- | --- | --- |
| CCCCCCCC(=O)SCC/C=C/[C@@H]1CC(=O)NCc2nc(cs2)C2=N[C@@](C)(CS2)C(=O)N[C@@H](C(C)C)C(=O)O1 [Largazole, reference compound] | 120 ± 58 |  |  |  |  |  |  | IC50 ([1]; MDA-MB-231, 72 h): 1370 ± 410 nM; IC50 ([2]; Homo sapiens, SK-OV-3, 72 h, read-out: IC50 ± SD SK-OV-3 growth inhibition, MTT, 72 h): 34 nM; IC50 ([2]; read-out: IC50 ± SD SK-OV-3 growth inhibition, MTT, 72 h): 30 ± 10 nM; IC50 [3]: 1520 ± 15 nM; IC50 [5]: 44 nM; IC50 ([6]; 10-dose IC50 mode in duplicate, threefold serial dilution, 60 min reaction, read-out: IC50 ± SD HDAC1): 228 ± 34 nM; IC50 ([7]; Homo sapiens, HCT-116, 72 h, read-out: IC50 ± SD HCT116 growth inhibition, MTT, 72 h): 184 nM; IC50 ([7]; read-out: IC50 ± SD HCT116 growth inhibition, MTT, 72 h): 180 ± 10 nM; IC50 ([8]; A549, 72 h): 460 ± 100 nM |
| C[C@@]12CSC(=N1)c1csc(n1)CNC(=O)C[C@@H](/C(F)=C/CCS)OC(=O)[C@H](Cc1ccccc1)NC2=O [Compound 15b] |  | 37.1 ± 0.7 nM | 16.2 ± 0.4 | 17.6 ± 4.1 | 338 ± 17 | 80 | 4.2 ± 0.3 |  |
| CC(C)[C@@H]1NC(=O)[C@]2(C)CSC(=N2)c2csc(n2)CNC(=O)C[C@@H](/C(F)=C/CCS)OC1=O [Compound 15a, (5R,8S,11S/R)-11-((Z)-1-Fluoro-4-mercaptobut-1-en-1-yl)-8-isopropyl-5-methyl-10-oxa-3,17-dithia-7,14,19,20-tetraazatricyclo[14.2.1.12,5]icosa-1(18),2(20),16(19)-triene-6,9,13-trione] |  | 39.2 nM and 39 nM | 21 ± 0.3 | 8.5 ± 2.5 | 300 ± 5 | 68 | 4.4 ± 0.2 | selectivity towards HDAC 1 over HDAC 6 [6, 12]: about 68 fold |
| CCCCCCCC(=O)SCC/C=C(\F)[C@@H]1CC(=O)NCc2nc(cs2)C2=N[C@@](C)(CS2)C(=O)N[C@@H](C(C)C)C(=O)O1 [Compound 16a, S-((Z)-4-Fluoro-4-((5R,8S,11S/R)-8-isopropyl-5-methyl-6,9,13-trioxo-10-oxa-3,17-dithia-7,14,19,20-tetraazatricyclo[14.2.1.12,5]icosa-1(18),2(20),16(19)-trien-11-yl)but-3-en-1-yl) octanethioate] | 255 ± 92 |  | 1817 ± 17 |  |  |  |  | IC50 ([1]; MDA-MB-231, MTT, 72 h, seven-dose IC50 mode in duplicate, four-fold serial dilution): 3850 ± 440 nM; IC50 ([2]; Homo sapiens, SK-OV-3, MTT, 72 h, read-out: IC50 ± SD SK-OV-3 growth inhibition): 250 ± 130 nM; IC50 [6]: 385 ± 45 nM; IC50 ([7]; Homo sapiens, HCT-116, MTT, 72 h, read-out: IC50 ± SD HCT116 growth inhibition): 810 ± 130 nM; IC50 ([8]; A549, MTT, 72 h, seven-dose IC50 mode in duplicate, four-fold serial dilution): 520 ± 120 nM |
